# Source: patent USRE39352E1, “Creatine amidinohydrolase, production thereof and use thereof” (Toyo Boseki Kabushiki Kaisha, priority 1996, dated 2006)
# Where “and” joins values, the source holds several entries; their conditions need not be identical. Equal entries are not always repeated.
# Legend:
# [1] = test system: Alcaligenes faecalis TE3581 (FERM P-14237) creatine amidinohydrolase, wild, SEQ ID NO: 1 (gene SEQ ID NO: 2); assay: Km value for creatine, coupling assay using sarcosine oxidase and peroxidase (wild enzyme); type: biochemical; settings: coupling assay with sarcosine oxidase and peroxidase, pH 7.6, 37° C.
# Source text: While the gene encoding a wild creatine amidinohydrolase which is to be mutated is not particularly limited, in one embodiment of the present invention, it is the creatine amidinohydrolase gene depicted in the Sequence Listing•SEQ ID:No.2, which is derived from Alcaligenes•faecalis TE3581 (FERM P-14237).
# In another embodiment of the present invention, a novel creatine amidinohydrolase having a smaller Km value for creatine than a wild creatine amidinohydrolase is produced by mutating the gene encoding the amino acid sequence depicted in the Sequence Listing•SEQ ID No:1. […]
# In the Examples, the activity of creatine amidinohydrolase was determined as follows. […]
# The above-mentioned reaction mixture (3 ml) is taken with a cuvette (d=1 cm) and preliminarily heated to 37° C. for about 3 minutes. […] Using water as a control, changes in absorbance at 500 nm are recorded for 5 minutes using a spectrophotometer controlled to 37° C. Based on the linear portion of 2-5 minutes thereof, changes in absorbance per minute are determined (ΔOD) test.
# The blank test is performed in the same manner as above except that a solution (0.1 ml, 50 mM potassium phosphate buffer, pH 7.5) for diluting the enzyme is used instead of the enzyme solution and changes in absorbance per minute are determined (ΔOD blank).
# The enzyme amount is calculated by inserting each measure into the following formula. […]
# [2] = test system: Alcaligenes faecalis TE3581 creatine amidinohydrolase mutant pCRH273M1 (FERM BP-5374), purified from Escherichia coli JM109 (pCRH273M1); assay: Km value for creatine, coupling assay using sarcosine oxidase and peroxidase (mutant pCRH273M1); type: biochemical; settings: coupling assay with sarcosine oxidase and peroxidase, pH 7.6, 37° C.
# [3] = test system: Alcaligenes faecalis TE3581 creatine amidinohydrolase mutant pCRH273M2 (FERM BP-5375), purified from Escherichia coli JM109 (pCRH273M2); assay: Km value for creatine, coupling assay using sarcosine oxidase and peroxidase (mutant pCRH273M2); type: biochemical; settings: coupling assay with sarcosine oxidase and peroxidase, pH 7.6, 37° C.
# [4] = test system: Alcaligenes faecalis TE3581 creatine amidinohydrolase mutant pCRH273M3 (FERM BP-5376), purified from Escherichia coli JM109 (pCRH273M3); assay: Km value for creatine, coupling assay using sarcosine oxidase and peroxidase (mutant pCRH273M3); type: biochemical; settings: coupling assay with sarcosine oxidase and peroxidase, pH 7.6, 37° C.
# [5] = test system: Pseudomonas putida creatine amidinohydrolase; settings: residual creatine determined with α-naphthol and diacetyl; Archives Biochemistry and Biophysics 177, 508-515 (1976); read-out: apparent Km value for creatine; cited from earlier work
# [6] = test system: creatine amidinohydrolase derived from bacteria belonging to the genus Corynebacterium; settings: Japanese Patent Examined Publication No. 76915/1991; cited from earlier work
# [7] = test system: creatine amidinohydrolase derived from bacteria belonging to the genus Micrococcus; settings: Japanese Patent Examined Publication No. 76915/1991; cited from earlier work
# [8] = test system: creatine amidinohydrolase derived from bacteria belonging to the genus Actinobacillus; settings: Japanese Patent Examined Publication No. 76915/1991; cited from earlier work
# [9] = test system: creatine amidinohydrolase derived from bacteria belonging to the genus Bacillus; settings: Japanese Patent Examined Publication No. 76915/1991; cited from earlier work
# [10] = test system: creatine amidinohydrolase produced by bacteria belonging to the genus Alcaligenes (Japanese Patent Unexamined Publication No. 63363/1994); settings: cited from earlier work
smiles,measurement,setting,value
CN(CC(=O)O)C(=N)N [creatine],Km,[1],15.2 mM
same,Km,[2],~6.5 mM and 6.5 mM
same,Km,[3],~4.5 mM and 4.5 mM
same,Km,[4],~9 mM and 9 mM
same,Km,[5],1.33 mM
same,Km,[6],~20 mM
same,Km,[7],~20 mM
same,Km,[8],~20 mM
same,Km,[9],~20 mM
same,Km,[10],~15.2 mM
